Data from US11248022B2, “Glypican-3 peptide reagents and methods” (THE REGENTS OF THE UNIVERSITY OF MICHIGAN, priority 2017, dated 2022).
Several values for one entry are separate records, joined by “and”; a condition that tells them apart may be missing. Equal entries are not always repeated. Ends that are not written are not given here.

Assays:
SK-Hep1 xenograft tumors = assay: Immunostaining on GPC3 negative SK-Hep1 xenograft sections; design: species or system mice; details: no GPC3 expression
From the text: FIGS. 18A-D show immunostaining on GPC3 negative HCC xenograft tumor.
The specimens were also sectioned for collection of confocal images to perform microscopic validation of peptide binding ex vivo.

SK-Hep1 cells = assay: Confocal microscopy of peptide binding to SK-Hep1 cells; format: cell-based, human
Experimental: (§1) FIGS. 6-2A-Q show validation of specific peptide binding to cells in vitro. […] The Hep3B versus SK-Hep1 difference was also larger for antibody than QLE (P=2.3×10^−8, 6.0-fold larger). Intensity was measured with 6 replicates per condition and fitted to an ANOVA model with terms for 9 means to log-transformed data. […] We further validated specific peptide binding to GPC3 using siRNA knockdown. […] Q) Quantified fluorescence intensities. The siCL vs siGPC3 difference was 7.4 times bigger for ALL than the same difference for QLE (P=7.8×10^−5), and the difference for antibody was 8.9 times bigger than for QLE (P=2.5×10^−5), by ANOVA on log-transformed data. Results are an average of 6 images collected independently.
(§2) On confocal microscopy, it was shown that ALL*-Cy5.5 binds to the surface (arrows) of cells with different levels of GPC3 expression. […] GPC3 is highly overexpressed in Hep3B cell cytosol and membrane while moderately expressed in HepG2 cells. No GPC3 expression is observed in SK-Hep1 cells. Tubulin serves as loading control for either cytosol or membrane fractions loaded.

human HCC = assay: Immunofluorescence on human liver biopsies ex vivo
From the text: Specific peptide binding to human HCC was confirmed on patient biopsies (n=41) ex vivo from University of Michigan Hospital. […] Antibody staining of the same tissue confirmed minimal GPC3 expression, FIG. 15B. Binding by ALL*-Cy5.5 peptide and AF488-labeled anti-GPC3 antibody co-localized on normal liver specimen with Pearson's correlation coefficient of p=0.62, FIG. 15C. Co-stained regions were also imaged at 40×, FIG. 15D and 100× (dashed box in Panel D) magnifications, FIG. 15E.
Quantitative comparison of ALL*-Cy5.5 binding to human HCC with normal liver, adenoma and cirrhosis tissue was summarized in FIG. 15U.

HepG2 human HCC cells = assay: Confocal microscopy of peptide binding to HepG2 cells; format: cell-based
Experimental: as §1, §2

GPC3 = molecular target: T1, GPC3 (Homo sapiens, UniProt P51654); assay: siRNA knockdown of GPC3 in Hep3B cells, confocal fluorescence; format: cell-based
T1 construct: endogenous in cells; host or cells: Hep3B human HCC cells (siCL control vs siGPC3 knockdown); also HepG2; SK-Hep1 as GPC3-negative control
Experimental: as §1
The specificity of lead candidate peptide reagent binding was validated by siRNA knockdown of GPC3 in human HCC cells. The cells were transfected with siRNA to knockdown cell surface expression of GPC3. […] These cells were transfected with non-targeting siRNA (siCL) for use as control. […] FIG. 6-1D,E show ˜4-fold reduction in fluorescence intensity with both the peptide reagent and anti-GPC3 antibody, respectively, for Hep3B cells transfected with siRNA (siGPC3) to knock down GPC3 expression. […] FIG. 6-2M, N, O and P show the same result as original FIG. 6-1A, B, D and E.

Hep3B cells = assay: Apparent dissociation constant on Hep3B cells by flow cytometry; format: binding, human
Experimental: The apparent dissociation constant (kd) was measured for the optimized GPC3 peptide to Hep3B cells to provide an assessment of peptide binding affinity. The ALL*-Cy5.5 peptide reagent was serially diluted in PBS at concentrations ranging from 0 to 200 nM in 25 nM increments and incubated with Hep3B cells. The mean fluorescence intensities was measured on flow cytometry. The equilibrium dissociation constant kd=1/ka was calculated by performing a least squares fit of the data to the non-linear equation I=(I0+Imaxka[X])/([…]). I0and Imax are the initial and maximum fluorescence intensities, corresponding to no peptide and at saturation, respectively, and [X] represents the concentration of the bound peptide.

[1] = 41 patients, log-transformed data

T1 sequence (P51654 25-554): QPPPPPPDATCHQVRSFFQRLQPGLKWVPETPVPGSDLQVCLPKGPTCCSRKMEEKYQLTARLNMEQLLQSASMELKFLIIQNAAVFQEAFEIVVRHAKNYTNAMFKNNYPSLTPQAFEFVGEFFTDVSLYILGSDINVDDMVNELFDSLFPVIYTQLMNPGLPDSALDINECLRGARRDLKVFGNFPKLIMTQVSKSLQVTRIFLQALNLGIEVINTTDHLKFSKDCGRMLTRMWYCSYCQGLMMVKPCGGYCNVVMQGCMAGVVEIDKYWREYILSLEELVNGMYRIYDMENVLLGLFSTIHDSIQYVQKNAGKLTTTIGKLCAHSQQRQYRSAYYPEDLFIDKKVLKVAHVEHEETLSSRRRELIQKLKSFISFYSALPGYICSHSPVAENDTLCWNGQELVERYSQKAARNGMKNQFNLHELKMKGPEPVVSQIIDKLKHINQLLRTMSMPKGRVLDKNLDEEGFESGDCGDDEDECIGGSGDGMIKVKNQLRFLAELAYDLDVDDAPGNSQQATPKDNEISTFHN

ALLANHEELFQT (SEQ ID NO: 1) peptide labeled with Cy5.5 via a GGGSK linker on the C-terminus (ALLANHEELFQTGGGSK-{Cy5.5}) [ALL*-Cy5.5]
staining of xenograft sections (SK-Hep1 xenograft tumors): No staining | fluorescence intensity from binding to cell surface (SK-Hep1 cells): minimal signal | signal in HCC relative to adenoma (human HCC; [1]): 2.48 fold | signal in HCC relative to cirrhosis (human HCC; [1]): 2.05 fold | signal in HCC relative to normal (human HCC; [1]): 3.43 fold | immunofluorescence staining (human HCC; HCC tissue): Strong intense staining | immunofluorescence staining (human HCC; adenoma tissue): Minimal staining | immunofluorescence staining (human HCC; cirrhotic liver tissue): moderate diffuse staining | immunofluorescence staining (human HCC; human normal liver tissue): negative staining | intensity difference HepG2 versus SK-Hep1 relative to the same difference for QLE* (HepG2 human HCC cells; 6 replicates, log-transformed data): 3.3 fold | fluorescence intensity from binding to cell surface (HepG2 human HCC cells; HepG2 cells, confocal microscopy): strong fluorescence intensity | siCL vs siGPC3 difference relative to the same difference for QLE (GPC3; ANOVA on log-transformed data): 7.4 times | fluorescence intensity remaining (% of siCL control) (GPC3; GPC3 knockdown cells): 27% | binding to cell surface (GPC3; Hep3B cells transfected with non-targeting siRNA (siCL)): strong binding | reduction in fluorescence intensity (GPC3; Hep3B cells transfected with siGPC3 vs siCL): ~4 fold | fluorescence intensity (GPC3; siCL treated Hep3B control cells): 54.3±6.0 | fluorescence intensity (GPC3; siGPC3 knockdown Hep3B cells): 14.7±1.5 | Kd (Hep3B cells): 71 nM and 71.3 nM
